# Data from US10968172B2, “USP30 inhibitors” (Mitobridge, Inc., priority 2017, dated 2021).
# Target: USP30 (Homo sapiens (Human), UniProt Q70CQ3)
# Assay: In vitro biochemical assay for USP30 enzyme (Ubiquitin-Rhodamine110 cleavage, fluorescence)
# Conditions: 20 nM USP30, 15 min pre-incubation, 100 nM Ub rhodamine substrate, 2 hrs at room temperature
# Method: In vitro biochemical assay for USP30 enzyme
# The in vitro assay for USP30 evaluates the ability of a test compound to inhibit the activity of the enzyme to cleave ubiquitin from a substrate. Ubiquitin-rhodamine 110 is a quenched, fluorescent substrate for USP30. Cleavage of the amide bond between the C-terminal glycine of ubiquitin and rhodamine results in an increase in rhodamine fluorescence at 535 nm (Exc. 485 nm).
# Incubation of the substrate in the presence or absence of USP30 was compared to confirm the deubiquitylating activity of USP30. The USP30 enzyme assay was performed by pre-incubating 20 nM of USP30 with varying concentration of a test compound in the assay buffer [PBS (pH 7.4), 1 mM DTT, 0.01% Tween 20, 0.01% BSA, DMSO final concentration is 1%] for 15 mins at room temperature, following which 100 nM of substrate Ub rhodamine was added and incubated at room temperature for 2 hrs and the plate was read for fluorescence intensity at Ex. 485 nm/535 nm in VICTOR X5 plate reader. The percent inhibition of activity of the enzyme is calculated by comparing counts in the presence and absence of compounds.
# Test compounds were screened at various concentrations (10-12 tested concentrations) and dose response curves were generated was generated using GraphPad Prism software Version 7 (San Diego, Calif., USA) with non-linear regression curve fit for sigmoidal dose response (variable slope).
# Chain of USP30 (Q70CQ3 whole entry): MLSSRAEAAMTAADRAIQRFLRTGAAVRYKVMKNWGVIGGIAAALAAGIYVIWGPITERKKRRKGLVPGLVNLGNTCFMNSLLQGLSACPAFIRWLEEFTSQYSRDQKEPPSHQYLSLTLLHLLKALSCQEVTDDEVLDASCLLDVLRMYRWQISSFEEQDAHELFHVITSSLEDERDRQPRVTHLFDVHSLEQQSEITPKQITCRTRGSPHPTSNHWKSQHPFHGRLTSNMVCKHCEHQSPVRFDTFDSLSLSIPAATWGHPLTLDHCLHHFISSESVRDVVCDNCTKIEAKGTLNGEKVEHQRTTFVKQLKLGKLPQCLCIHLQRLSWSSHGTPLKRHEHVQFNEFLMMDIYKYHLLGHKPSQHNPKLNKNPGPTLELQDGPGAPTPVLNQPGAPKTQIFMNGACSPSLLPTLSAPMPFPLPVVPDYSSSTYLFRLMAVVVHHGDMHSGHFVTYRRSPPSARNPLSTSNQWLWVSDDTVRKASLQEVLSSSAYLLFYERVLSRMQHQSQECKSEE
row,Compound,IC50 [nM]
1,"COc1ccc(C[C@H](NC(=O)c2ccncc2)C(=O)Nc2ccc(S(=O)(=O)NC(C)(C)C)cc2)cc1 [Compound 19ab, (S)-N-(1-((4-(N-(tert-butyl)sulfamoyl)phenyl)amino)-3-(4-methoxyphenyl)-1-oxopropan-2-yl)isonicotinamide]",2400
2,"CC(C)(C)NS(=O)(=O)c1ccc(NC(=O)[C@H](CC2CCOCC2)NC(=O)C2CCCCC2)cc1 [Compound 19ac, (S)-N-(1-((4-(N-(tert-butyl)sulfamoyl)phenyl)amino)-1-oxo-3-(tetrahydro-2H-pyran-4-yl)propan-2-yl)cyclohexanecarboxamide]",71
3,"CC(C)(C)NS(=O)(=O)c1ccc(NC(=O)[C@H](Cc2cccc(C#N)c2)NC(=O)C2CCCCC2)cc1 [Compound 19ad, (S)-N-(1-((4-(N-(tert-butyl)sulfamoyl)phenyl)amino)-3-(3-cyanophenyl)-1-oxopropan-2-yl)cyclohexanecarboxamide]",41
4,"CC(C)(C)NS(=O)(=O)c1ccc(NC(=O)[C@H](Cc2ccc(OC(F)(F)F)cc2)NC(=O)c2ccc(F)cc2)cc1 [Compound 19ae, (S)-N-(1-((4-(N-(tert-butyl)sulfamoyl)phenyl)amino)-1-oxo-3-(4-(trifluoromethoxy)phenyl)propan-2-yl)-4-fluorobenzamide]",3600
5,"CC(C)(C)NS(=O)(=O)c1ccc(NC(=O)[C@H](Cc2ccc(F)cc2)NC(=O)c2ccccc2)cc1 [Compound 19b, (S)-N-(1-((4-(N-(tert-butyl)sulfamoyl)phenyl)amino)-3-(4-fluorophenyl)-1-oxopropan-2-yl)benzamide]",133
6,"CC(C)(C)NS(=O)(=O)c1ccc(NC(=O)[C@H](CC2CC2)NC(=O)C2CCCCC2)cc1 [Compound 19c, (S)-N-(1-((4-(N-(tert-butyl)sulfamoyl)phenyl)amino)-3-cyclopropyl-1-oxopropan-2-yl)cyclohexanecarboxamide]",810
7,"CC(C)(C)NS(=O)(=O)c1ccc(NC(=O)[C@H](Cc2cccc(Cl)c2)NC(=O)C2CCCCC2)cc1 [Compound 19e, (S)-N-(1-((4-(N-(tert-butyl)sulfamoyl)phenyl)amino)-3-(3-chlorophenyl)-1-oxopropan-2-yl)cyclohexanecarboxamide]",> 10000
8,"COc1ccc(C[C@H](NC(=O)c2ccc(F)cc2)C(=O)Nc2ccc(S(=O)(=O)NC(C)(C)C)cc2)cc1 [Compound 19f, (S)-N-(1-((4-(N-(tert-butyl)sulfamoyl)phenyl)amino)-3-(4-methoxyphenyl)-1-oxopropan-2-yl)-4-fluorobenzamide]",22
9,"CC(C)(C)NS(=O)(=O)c1ccc(NC(=O)[C@H](Cc2cccs2)NC(=O)c2ccc(F)cc2)cc1 [Compound 19g, (S)-N-(1-((4-(N-(tert-butyl)sulfamoyl)phenyl)amino)-1-oxo-3-(thiophen-2-yl)propan-2-yl)-4-fluorobenzamide]",19
10,"CC(C)NS(=O)(=O)c1ccc(NC(=O)[C@H](Cc2ccccc2)NC(=O)C2CCCCC2)cc1 [Compound 19h, (S)-N-(1-((4-(N-isopropylsulfamoyl)phenyl)amino)-1-oxo-3-phenylpropan-2-yl)cyclohexanecarboxamide]",179
11,"C[C@@H](O)[C@H](NC(=O)C1CCCCC1)C(=O)Nc1ccc(S(=O)(=O)NC(C)(C)C)cc1 [Compound 19i, N-((2S,3R)-1-((4-(N-(tert-butyl)sulfamoyl)phenyl)amino)-3-hydroxy-1-oxobutan-2-yl)cyclohexanecarboxamide]",> 10000
12,"CC(C)(C)NS(=O)(=O)c1ccc(NC(=O)[C@H](CO)NC(=O)C2CCCCC2)cc1 [Compound 19j, (S)-N-(1-((4-(N-(tert-butyl)sulfamoyl)phenyl)amino)-3-hydroxy-1-oxopropan-2-yl)cyclohexanecarboxamide]",> 10000
13,"CC(C)(C)NS(=O)(=O)c1ccc(NC(=O)[C@H](Cc2ccc(F)cc2)NC(=O)c2ccc(F)cc2)cc1 [Compound 19k, (S)-N-(1-((4-(N-(tert-butyl)sulfamoyl)phenyl)amino)-3-(4-fluorophenyl)-1-oxopropan-2-yl)-4-fluorobenzamide]",26
14,"CC(C)(C)NS(=O)(=O)c1ccc(NC(=O)[C@H](Cc2ccc(-c3ccccc3)cc2)NC(=O)c2ccc(F)cc2)cc1 [Compound 19l, (S)-N-(3-([1,1′-biphenyl]-4-yl)-1-((4-(N-(tert-butyl)sulfamoyl)phenyl)amino)-1-oxopropan-2-yl)-4-fluorobenzamide]",169
15,"CC(C)(C)NS(=O)(=O)c1ccc(NC(=O)[C@H](Cc2ccccc2)NC(=O)C2CCCCC2)cc1F [Compound 19m, (S)-N-(1-((4-(N-(tert-butyl)sulfamoyl)-3-fluorophenyl)amino)-1-oxo-3-phenylpropan-2-yl)cyclohexanecarboxamide]",275
16,"CC(C)(C)NS(=O)(=O)c1ccc(NC(=O)[C@H](Cc2cccnc2)NC(=O)c2ccc(F)cc2)cc1 [Compound 19n, (S)-N-(1-((4-(N-(tert-butyl)sulfamoyl)phenyl)amino)-1-oxo-3-(pyridin-3-yl)propan-2-yl)-4-fluorobenzamide]",16
17,"CC(C)(C)NS(=O)(=O)c1ccc(NC(=O)[C@H](Cc2ccccn2)NC(=O)c2ccc(F)cc2)cc1 [Compound 19o, (S)-N-(1-((4-(N-(tert-butyl)sulfamoyl)phenyl)amino)-1-oxo-3-(pyridin-2-yl)propan-2-yl)-4-fluorobenzamide]",48
18,"CC(C)(C)NS(=O)(=O)c1cccc2c(NC(=O)[C@H](CC3CCCCC3)NC(=O)C3CCCCC3)cccc12 [Compound 19p, (S)-N-(1-((5-(N-(tert-butyl)sulfamoyl)naphthalen-1-yl)amino)-3-cyclohexyl-1-oxopropan-2-yl)cyclohexanecarboxamide]",195
19,"CC(C)(C)NS(=O)(=O)c1cccc2c(NC(=O)[C@H](Cc3ccccc3)NC(=O)/C=C/c3ccccc3)cccc12 [Compound 19q, (S)-N-(1-((5-(N-(tert-butyl)sulfamoyl)naphthalen-1-yl)amino)-1-oxo-3-phenylpropan-2-yl)cinnamamide]",> 10000
20,"CC(C)(C)NS(=O)(=O)c1ccc(NC(=O)[C@H](Cc2cccs2)NC(=O)c2ccccn2)cc1 [Compound 19s, (S)-N-(1-((4-(N-(tert-butyl)sulfamoyl)phenyl)amino)-1-oxo-3-(thiophen-2-yl)propan-2-yl)picolinamide]",200
21,"COc1ccc(C(=O)N[C@@H](Cc2cccs2)C(=O)Nc2ccc(S(=O)(=O)NC(C)(C)C)cc2)nc1 [Compound 19t, (S)-N-(1-((4-(N-(tert-butyl)sulfamoyl)phenyl)amino)-1-oxo-3-(thiophen-2-yl)propan-2-yl)-5-methoxypicolinamide]",1040
22,"COc1ccc(C[C@H](NC(=O)c2ccccn2)C(=O)Nc2ccc(S(=O)(=O)NC(C)(C)C)cc2)cc1 [Compound 19u, (S)-N-(1-((4-(N-(tert-butyl)sulfamoyl)phenyl)amino)-3-(4-methoxyphenyl)-1-oxopropan-2-yl)picolinamide]",195
23,"COc1ccc(C[C@H](NC(=O)c2cncs2)C(=O)Nc2ccc(S(=O)(=O)NC(C)(C)C)cc2)cc1 [Compound 19w, (S)-N-(1-((4-(N-(tert-butyl)sulfamoyl)phenyl)amino)-3-(4-methoxyphenyl)-1-oxopropan-2-yl)thiazole-5-carboxamide]",> 10000
